# Data: patent US8586739B2, “Heterocyclic compounds and their uses” (Amgen Inc., priority 2007, dated 2013)
# Tested on: human B cells
# Assay: Human B cells proliferation stimulated by anti-IgM (3H thymidine)
# Format: cell-based
# Conditions: Homo sapiens, B-cell, 72 h, purified human B cells, anti-Human IgM + CD40L-LZ
# Experimental: Human B Cells Proliferation stimulate by anti-IgM
# Isolate PBMCs from Leukopac or from human fresh blood. Isolate human B cells by using Miltenyi protocol and B cell isolation kit II.—human B cells were Purified by using autoMACS® column.
# Activation of Human B Cells
# Use 96 well Flat bottom plate, plate 50000/well purified B cells in B cell proffer-ation medium (DMEM+5% FCS, 10 mM Hepes, 50 μM 2-mercaptoethanol); 150 μL medium contain 250 ng/mL CD40L-LZ recombinant protein (Amgen) and 2 μg/mL anti-Human IgM antibody (Jackson ImmunoReseach Lab.#109-006-129), mixed with 50 μL B cell medium containing PI3K inhibitors and incubate 72 h at 37° C. incubator. After 72 h, pulse labeling B cells with 0.5-1 uCi/well ^3H thymidine for overnight ˜18 h, and harvest cell using TOM harvester.
row,SMILES,IC50 [nM]
1,"C[C@H](Nc1ncnc2[nH]cnc12)c1cc2cccc(Cl)c2nc1-c1cc(F)cc(F)c1 [N-((1S)-1-(8-chloro-2-(3,5-difluorophenyl)-3-quinolinyl)ethyl)-9H-purin-6-amine]",5.04
2,Clc1cccc2cc(CNc3ncnc4[nH]cnc34)c(-c3ccccc3-c3ccccc3)nc12 [N-((2-(2-biphenylyl)-8-chloro-3-quinolinyl)methyl)-9H-purin-6-amine],165
3,Fc1ccc(Cl)c(-c2nc3c(Cl)cccc3cc2CNc2ncnc3[nH]cnc23)c1 [N-((8-chloro-2-(2-chloro-5-fluorophenyl)-3-quinolinyl)methyl)-9H-purin-6-amine],38.4
4,C[C@H](Nc1ncnc2[nH]cnc12)c1cc2cccc(Cl)c2nc1-c1cc(F)ccc1OCc1ccccc1 [N-((1S)-1-(2-(2-(benzyloxy)-5-fluorophenyl)-8-chloro-3-quinolinyl)ethyl)-9H-purin-6-amine],16.8
5,"C[C@H](Nc1ncnc2[nH]cnc12)c1cc2cccc(-c3ccccc3)c2nc1-c1ccccc1 [N-((1S)-1-(2,8-diphenyl-3-quinolinyl)ethyl)-9H-purin-6-amine]",18.8
6,C[C@H](Nc1ncnc2[nH]cnc12)c1cc2cccc(Cl)c2nc1-c1ccc(F)cc1 [N-((1S)-1-(8-chloro-2-(4-fluorophenyl)-3-quinolinyl)ethyl)-9H-purin-6-amine],10.5
7,C[C@H](Nc1ncnc2[nH]cnc12)c1cc2c(Cl)cccc2nc1-c1cccc(F)c1 [N-((S)-1-(5-Chloro-2-(3-fluorophenyl)quinolin-3-yl)ethyl)-9H-purin-6-amine],14.2
8,Clc1cccc2cc(COc3ncnc4[nH]cnc34)c(-c3ccccc3)nc12 [8-chloro-2-phenyl-3((9H-purin-6-yloxy)methyl)quinoline],81.4
9,"C[C@H](Nc1ncnc2nc[nH]c12)c1cc2cccc(F)c2nc1-c1cc(F)ccc1F [N-((1S)-1-(2-(2,5-difluorophenyl)-8-fluoro-3-quinolinyl)ethyl)-7H-purin-6-amine]",12.7
10,Oc1ccc(F)cc1-c1nc2c(Cl)cccc2cc1CNc1ncnc2[nH]cnc12 [2-(8-chloro-3-((9H-purin-6-ylamino)methyl)-2-quinolinyl)-4-fluorophenol],819
11,CS(=O)(=O)c1ccccc1-c1nc2c(Cl)cccc2cc1CNc1ncnc2[nH]cnc12 [N-((8-chloro-2-(2-(methylsulfonyl)phenyl)-3-quinolinyl)methyl)-9H-purin-6-amine],151
12,C[C@H](Nc1ncnc2[nH]cnc12)c1nc2cccc(Cl)c2nc1-c1cc(F)ccc1Cl [N-((1S)-1-(5-chloro-3-(2-chloro-5-fluorophenyl)-2-quinoxalinyl)ethyl)-9H-purin-6-amine],89.3
13,C[C@H](Nc1ncnc2[nH]cnc12)c1nc2cccc(C(F)(F)F)c2nc1-c1ccccc1Cl [N-((1S)-1-(3-(2-chlorophenyl)-5-(trifluoromethyl)-2-quinoxalinyl)ethyl)-9H-purin-6-amine],10.4
14,C[C@H](Nc1ncnc2[nH]cnc12)c1cc2cccc(Cl)c2nc1-c1cccnn1 [N-((1S)-1-(8-chloro-2-(3-pyridazinyl)-3-quinolinyl)ethyl)-9H-purin-6-amine],18
15,C[C@H](Nc1ncnc2[nH]cnc12)c1cc2cccc(Cl)c2nc1-c1ccccc1 [N-((1S)-1-(8-chloro-2-phenyl-3-quinolinyl)ethyl)-9H-purin-6-amine],2.65
16,C[C@H](Nc1nc(F)nc2[nH]cnc12)c1cc2cccc(Cl)c2nc1-c1ccccn1 [N-((1S)-1-(8-chloro-2-(2-pyridinyl)-3-quinolinyl)ethyl)-2-fluoro-9H-purin-6-amine],14
17,"Clc1ccccc1-c1nc2c(Cl)cccc2cc1CNc1ccnc2[nH]cnc12 [N-((8-chloro-2-(2-chlorophenyl)-3-quinolinyl)methyl)-3H-imidazo[4,5-b]pyridin-7-amine]",361
18,Cc1cccc(-c2nc3c(Cl)cccc3cc2[C@H](C)Nc2ncnc3[nH]cnc23)n1 [N-((1S)-1-(8-chloro-2-(6-methyl-2-pyridinyl)-3-quinolinyl)ethyl)-9H-purin-6-amine],105
19,N#Cc1cccc2cc(CNc3ncnc4[nH]cnc34)c(-c3cccc(F)c3)nc12 [2-(3-fluorophenyl)-3-((9H-purin-6-ylamino)methyl)-8-quinolinecarbonitrile],300
20,CC(C)c1ncncc1-c1nc2c(Cl)cccc2cc1CNc1ncnc2[nH]cnc12 [N-((8-chloro-2-(4-(1-methylethyl)-5-pyrimidinyl)-3-quinolinyl)methyl)-9H-purin-6-amine],78.9
21,Clc1cccc2cc(CNc3ncnc4[nH]cnc34)c(-c3ccccc3)nc12 [N-((8-chloro-2-phenyl-3-quinolinyl)methyl)-9H-purin-6-amine],219

row,SMILES,IC50 [nM]
1,"C[C@H](Nc1ncnc2[nH]cnc12)c1cc2cccc(-c3cccc(F)c3)c2nc1-c1cccc(F)c1 [N-((1S)-1-(2,8-bis(3-fluorophenyl)-3-quinolinyl)ethyl)-9H-purin-6-amine]",1.06
2,Fc1ccc(-c2nc3c(Cl)cccc3cc2CNc2ncnc3nc[nH]c23)cc1 [N-((8-chloro-2-(4-fluorophenyl)-3-quinolinyl)methyl)-7H-purin-6-amine],265
3,Clc1cccc(-c2nc3c(Cl)cccc3cc2CNc2ncnc3[nH]cnc23)c1 [N-((8-chloro-2-(3-chlorophenyl)-3-quinolinyl)methyl)-9H-purin-6-amine],411
4,"Cc1cc(C)n(-c2nc3c(Cl)cccc3cc2[C@H](C)Nc2ncnc3[nH]cnc23)n1 [N-((1S)-1-(8-chloro-2-(3,5-dimethyl-1H-pyrazol-1-yl)-3-quinolinyl)ethyl)-9H-purin-6-amine]",2.63
5,CCc1ncccc1-c1nc2c(Cl)cccc2cc1[C@H](C)Nc1ncnc2[nH]cnc12 [N-((1S)-1-(8-chloro-2-(2-ethyl-3-pyridinyl)-3-quinolinyl)ethyl)-9H-purin-6-amine],3.31
6,CC(C)c1ccncc1-c1nc2c(Cl)cccc2cc1CNc1ncnc2[nH]cnc12 [N-((8-chloro-2-(4-(1-methylethyl)-3-pyridinyl)-3-quinolinyl)methyl)-9H-purin-6-amine],25.8
7,C[C@H](Nc1ncnc2[nH]cnc12)c1cc2cccc(Cl)c2nc1-c1cccc(F)n1 [N-((1S)-1-(8-chloro-2-(6-fluoro-2-pyridinyl)-3-quinolinyl)ethyl)-9H-purin-6-amine],3.1
8,Clc1cccc2cc(CNc3ncnc4[nH]cnc34)c(-c3ccccn3)nc12 [N-((8-chloro-2-(2-pyridinyl)-3-quinolinyl)methyl)-9H-purin-6-amine],34.1
9,C[C@H](Nc1ncnc2[nH]cnc12)c1nc2cccc(Cl)c2nc1-c1cccc(F)c1 [N-((S)-1-(5-Chloro-3-(3-fluorophenyl)quinoxalin-2-yl)ethyl)-9H-purin-6-amine],8.55
10,Clc1ccccc1-c1nc2c(I)cccc2nc1CNc1ncnc2[nH]cnc12 [N-((3-(2-Chlorophenyl)-5-iodoquinoxalin-2-yl)methyl)-9H-purin-6-amine],88.4
11,C[C@H](Nc1ncnc2[nH]cnc12)c1cc2cccc(Cl)c2nc1-c1ccccc1Cl [N-((1S)-1-(8-chloro-2-(2-chlorophenyl)-3-quinolinyl)ethyl)-9H-purin-6-amine],3.6
12,Fc1ccc(OCc2cccnc2)c(-c2nc3c(Cl)cccc3cc2CNc2ncnc3[nH]cnc23)c1 [N-((8-chloro-2-(5-fluoro-2-(3-pyridinylmethoxy)phenyl)-3-quinolinyl)methyl)-9H-purin-6-amine],178
13,"C[C@H](Nc1ncnc2[nH]cnc12)c1cc2cccc(Cl)c2nc1-c1cccc(F)c1F [N-((S)-1-(8-Chloro-2-(2,3-difluorophenyl)quinolin-3-yl)ethyl)-9H-purin-6-amine]",7.59
14,Fc1ccc(Cl)c(-c2nc3c(Cl)cccc3nc2CNc2ncnc3[nH]cnc23)c1 [N-((5-Chloro-3-(2-chloro-5-fluorophenyl)quinoxalin-2-yl)methyl)-9H-purin-6-amine],165
15,C[C@@H](Nc1ncnc2[nH]cnc12)c1cc2c(Cl)cccc2nc1-c1cccc(F)c1 [N-((R)-1-(5-Chloro-2-(3-fluorophenyl)quinolin-3-yl)ethyl)-9H-purin-6-amine],33.6
16,CC[C@H](Nc1ncnc2[nH]cnc12)c1cc2cccc(Cl)c2nc1-c1cccc(F)c1 [N-((1S)-1-(8-chloro-2-(3-fluorophenyl)-3-quinolinyl)propyl)-9H-purin-6-amine],5.3
17,FC(F)(F)c1ccccc1-c1nc2c(Cl)cccc2nc1CNc1ncnc2[nH]cnc12 [N-((5-chloro-3-(2-(trifluoromethyl)phenyl)-2-quinoxalinyl)methyl)-9H-purin-6-amine],41.8
18,C[C@H](Nc1ncnc2[nH]cnc12)c1cc2cccc(Cl)c2nc1-c1cncc(F)c1 [N-((1S)-1-(8-chloro-2-(5-fluoro-3-pyridinyl)-3-quinolinyl)ethyl)-9H-purin-6-amine],3.57
19,Cc1ncc(F)cc1-c1nc2c(Cl)cccc2cc1[C@H](C)Nc1ncnc2[nH]cnc12 [N-((1S)-1-(8-chloro-2-(5-fluoro-2-methyl-3-pyridinyl)-3-quinolinyl)ethyl)-9H-purin-6-amine],16.9
20,Fc1cccc(-c2nc3c(Br)cccc3cc2CNc2ncnc3[nH]cnc23)c1 [N-((8-Bromo-2-(3-fluorophenyl)quinolin-3-yl)methyl)-9H-purin-6-amine],68.8

# Same assay, conditions: Homo sapiens, B-cell, purified human B cells, anti-Human IgM + CD40L-LZ, 72 h
row,SMILES,IC50 [nM]
1,"C[C@H](Nc1ncnc2[nH]cnc12)c1cc2cccc(Cl)c2nc1-c1cc(F)cc(F)c1 [N-((1S)-1-(8-chloro-2-(3,5-difluorophenyl)-3-quinolinyl)ethyl)-9H-purin-6-amine]",5.04

# Same assay, conditions: purified human B cells, anti-Human IgM + CD40L-LZ, 72 h
row,SMILES,IC50 [nM]
1,Cc1cccnc1-c1nc2c(Cl)cccc2cc1CNc1ncnc2[nH]cnc12 [N-((8-chloro-2-(3-methyl-2-pyridinyl)-3-quinolinyOmethyl)-9H-purin-6-amine],79
